In patent US7833513B2, “Treatment of Alzheimer's Disease” (Rhode Island Hospital, priority 2004, dated 2010):

Tests used:
Assay type in all cases: in vivo, Long Evans rat
brain gene expression = assay: ic-STZ ± PPAR agonist: real time quantitative RT-PCR of temporal lobe, hypothalamus, cerebellum; conditions: for ic-STZ associated reductions in IGF-II expression: rat, in vivo; for APP gene expression / Tau gene expression: temporal lobe and hypothalamus; for APP mRNA relative to control and ic-STZ: cerebella
Experimental: (§1) On the same day, sub-sets of the ic-STZ group were given a single intra-peritoneal injection of vehicle (saline), or a PPAR-α (GW7647; 25 ug/Kg), PPAR-δ (L-165,041; 2 μg/Kg), or PPAR-γ (F-L-Leu; 20 μg/Kg) activator (CalBiochem, Carlsbad, Calif.). […] In addition, at 4 weeks of age, memory and learning were evaluated using a Morris Water Maze (R. W. Hickey, M. Akino, S. Strausbaugh, G. M. De Courten-Myers. Use of the Morris water maze and acoustic startle chamber to evaluate neurologic injury after asphyxial arrest in rats. Pediatr Res 39(1) (1996), 77-84). The procedures and use of rats in these experiments were approved by the Lifespan-Rhode Island Hospital IACUC committee.
Real Time Quantitative RT-PCR: Total RNA isolated from the temporal lobe, hypothalamus, and cerebellum was reverse transcribed using the AMV First Strand cDNA synthesis kit (Roche Diagnostics Corporation, Indianapolis, Ind.) and random oligodeoxynucleotide primers. […] In addition, pathological shifts in cell type associated with ic-STZ-mediated neurodegeneration were detected by measuring the mRNA levels of Hu (neurons), GFAP (astrocytes), myelin-associated glycloprotein (MAG-1; oligodendroglia), and allograft inflammatory factor-1 (AIF-1; microglia) (E. J. Rivera, A. Goldin, N. Fulmer, R. Tavares, J. R. Wands, S. M. de la Monte, J. Alzheimers Dis 8(3) (2005), 247-68). Ribosomal 18S RNA levels measured in parallel reactions were used to calculate the relative abundance of each mRNA transcript (J. E. Yeon, S. Califano, J. Xu, J. R. Wands, S. M. De La Monte. Potential role of PTEN phosphatase in ethanol-impaired survival signaling in the liver. Hepatology 38(3) (2003), 703-14, J. Xu, J. Eun Yeon, H. Chang, G. Tison, G. Jun Chen, J. R. Wands, et al. Ethanol impairs insulin-stimulated neuronal survival in the developing brain: Role of PTEN phosphatase. J Biol Chem (2003)). The gene expression levels were measured by real time quantitative RT-PCR Relative mRNA abundance was determined from the ng ratios of specific mRNA to 18S (J. E. Yeon, S. Califano, J. Xu, J. R. Wands, S. M. De La Monte. Potential role of PTEN phosphatase in ethanol-impaired survival signaling in the liver. Hepatology 38(3) (2003), 703-14, J. Xu, J. Eun Yeon, H. Chang, G. Tison, G. Jun Chen, J. R. Wands, et al. Ethanol impairs insulin-stimulated neuronal survival in the developing brain: Role of PTEN phosphatase. J Biol Chem (2003)).

IGF-II receptor = target: T1, IGF-II receptor (Rattus norvegicus, UniProt G3V824); assay: ic-STZ ± PPAR agonist: equilibrium and saturation binding to IGF-II receptors in the brain; conditions: for BMAX, IGF-II receptor saturation binding in brains of treated rats: [125I]-IGF-II tracer, pooled brain membranes, 4 weeks after ic-STZ ± IP PPAR agonist
T1 construct: from tissue; host or cells: rat brain (temporal lobe)
T1 sequence (G3V824 36-2481): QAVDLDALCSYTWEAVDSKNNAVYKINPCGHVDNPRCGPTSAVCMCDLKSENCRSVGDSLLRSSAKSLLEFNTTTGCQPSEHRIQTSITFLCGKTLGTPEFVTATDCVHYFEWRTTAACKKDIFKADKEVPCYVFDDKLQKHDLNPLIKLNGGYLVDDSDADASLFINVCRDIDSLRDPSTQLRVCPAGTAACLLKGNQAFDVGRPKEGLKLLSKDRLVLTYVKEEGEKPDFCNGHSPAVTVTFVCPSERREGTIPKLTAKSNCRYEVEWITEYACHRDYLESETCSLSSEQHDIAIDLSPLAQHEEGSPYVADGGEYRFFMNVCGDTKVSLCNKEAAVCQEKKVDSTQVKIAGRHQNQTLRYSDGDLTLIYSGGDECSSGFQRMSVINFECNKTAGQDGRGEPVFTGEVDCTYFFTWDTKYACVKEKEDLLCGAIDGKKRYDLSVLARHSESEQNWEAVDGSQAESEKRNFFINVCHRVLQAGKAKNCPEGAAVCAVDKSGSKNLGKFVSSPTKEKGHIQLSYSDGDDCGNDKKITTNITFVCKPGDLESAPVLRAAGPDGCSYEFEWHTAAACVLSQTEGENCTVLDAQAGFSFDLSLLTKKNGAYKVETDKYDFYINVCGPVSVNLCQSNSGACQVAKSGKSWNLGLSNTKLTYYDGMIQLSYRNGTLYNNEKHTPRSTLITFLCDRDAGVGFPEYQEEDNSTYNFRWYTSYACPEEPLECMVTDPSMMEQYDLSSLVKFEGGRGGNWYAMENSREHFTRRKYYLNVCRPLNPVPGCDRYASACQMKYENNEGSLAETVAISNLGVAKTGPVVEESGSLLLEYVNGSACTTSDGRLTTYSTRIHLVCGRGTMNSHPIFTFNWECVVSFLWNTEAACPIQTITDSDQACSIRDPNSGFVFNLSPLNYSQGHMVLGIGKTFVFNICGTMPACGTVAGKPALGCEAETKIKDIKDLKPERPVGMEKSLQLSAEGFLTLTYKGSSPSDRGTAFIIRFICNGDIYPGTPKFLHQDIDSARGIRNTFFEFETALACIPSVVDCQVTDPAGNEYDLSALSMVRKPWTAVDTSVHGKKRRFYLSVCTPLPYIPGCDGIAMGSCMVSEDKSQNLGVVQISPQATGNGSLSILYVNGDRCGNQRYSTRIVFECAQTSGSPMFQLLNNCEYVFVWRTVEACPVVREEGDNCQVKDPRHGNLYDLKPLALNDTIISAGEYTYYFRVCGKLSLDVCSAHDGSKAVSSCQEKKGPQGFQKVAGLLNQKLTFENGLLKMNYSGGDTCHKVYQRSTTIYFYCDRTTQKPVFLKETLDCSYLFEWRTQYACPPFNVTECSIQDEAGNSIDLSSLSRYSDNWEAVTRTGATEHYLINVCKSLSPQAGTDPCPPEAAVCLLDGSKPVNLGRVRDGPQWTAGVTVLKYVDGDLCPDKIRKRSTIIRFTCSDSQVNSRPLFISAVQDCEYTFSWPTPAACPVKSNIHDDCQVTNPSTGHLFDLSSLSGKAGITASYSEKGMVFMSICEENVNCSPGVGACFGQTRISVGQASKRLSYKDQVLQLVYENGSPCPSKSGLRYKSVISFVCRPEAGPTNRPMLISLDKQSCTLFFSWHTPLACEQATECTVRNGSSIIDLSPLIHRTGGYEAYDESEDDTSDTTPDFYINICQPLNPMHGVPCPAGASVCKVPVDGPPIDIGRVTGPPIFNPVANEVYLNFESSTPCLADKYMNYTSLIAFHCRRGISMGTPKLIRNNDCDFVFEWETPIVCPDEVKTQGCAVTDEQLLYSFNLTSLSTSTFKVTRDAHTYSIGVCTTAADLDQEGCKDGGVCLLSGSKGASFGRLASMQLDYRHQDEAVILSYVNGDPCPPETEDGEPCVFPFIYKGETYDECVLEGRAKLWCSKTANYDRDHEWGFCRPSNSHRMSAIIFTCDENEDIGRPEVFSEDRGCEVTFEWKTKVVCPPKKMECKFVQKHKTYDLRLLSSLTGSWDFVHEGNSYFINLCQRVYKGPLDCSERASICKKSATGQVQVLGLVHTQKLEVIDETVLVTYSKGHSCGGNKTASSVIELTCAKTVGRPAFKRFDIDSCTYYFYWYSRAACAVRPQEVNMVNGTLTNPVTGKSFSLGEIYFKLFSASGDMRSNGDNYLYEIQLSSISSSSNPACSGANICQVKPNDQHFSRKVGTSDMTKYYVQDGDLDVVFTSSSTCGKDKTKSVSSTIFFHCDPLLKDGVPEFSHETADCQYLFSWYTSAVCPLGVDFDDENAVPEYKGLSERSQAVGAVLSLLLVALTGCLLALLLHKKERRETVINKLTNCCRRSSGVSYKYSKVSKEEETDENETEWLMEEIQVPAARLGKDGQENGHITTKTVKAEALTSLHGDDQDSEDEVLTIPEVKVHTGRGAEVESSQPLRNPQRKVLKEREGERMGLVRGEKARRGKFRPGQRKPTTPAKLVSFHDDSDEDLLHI
Experimental: as §1
(§2) Membrane protein extracted from fresh frozen brain tissue was used for competitive equilibrium and saturation binding assays. For total binding in equilibrium binding assays, duplicate samples were incubated in 100 μl reactions containing binding buffer (100 mM HEPES, pH 8.0, 118 mM NaCl, 1.2 mM MgSO4, 8.8 mM dextrose, 5 mM KCl, 1% bovine serum albumin) and 100 nCi/ml of [^125I] […] To measure total binding in saturation binding assays, samples from 8-12 brains per group were pooled in equal proportions, and duplicate samples were incubated in 100 μl reactions containing binding buffer and 0.0031 to 1 μCi/ml of [^125I] […] To detect non-specific binding in the equilibrium and saturation binding assays, duplicate reactions were incubated with the same concentrations of radiolabeled tracer plus 0.1 μM unlabeled (cold) competitive ligand. After 16 hours incubation at 4° C., bound radiolabeled tracer was precipitated with bovine gamma globulin and polyethylene glycol 8000. The precipitate (bound ligand) and supernatant (free ligand) fractions were counted in an LKB CompuGamma CS Gamma counter. Specific binding was calculated by subtracting fmols of non-specific binding, i.e. amount bound in the presence of excess cold ligand, from total fmols bound in the absence of unlabeled competitive ligand. GraphPad Prism 4 software (San Diego, Calif.) was used to calculate saturation binding (BMAX) and binding affinity (Kd) for each data set.

[1] = system: GFAP, HNE, 8-OHdG, ChAT immunoreactivity; assay: ic-STZ ± PPAR agonist: immunohistochemical staining of brain; conditions: for ChAT immunoreactivity: basal forebrain region; for 8-OHdG immunoreactivity / GFAP immunoreactivity / HNE immunoreactivity: temporal cortex
Experimental: Histopathological and Immunohistochemical Staining Studies: Whole fresh brains were immersion fixed in Histofix (Amresco, Solon, Ohio) and then sectioned in the coronal plane along standardized landmarks, embedded in paraffin, and processed for histopathological studies. In addition, fresh brains were sectioned in the coronal plane to obtain a ˜3 mm thick slice that flanked the infundibulum. The 3-mm brain slice was snap frozen between two slabs of dry ice, and then stored at −80° C. for later RNA and protein studies. The residual tissue was immersion fixed and processed for histopathological studies. […] As negative controls for the immunostaining reactions, either the primary antibody was omitted or non-relevant monoclonal antibody to Hepatitis B virus was used in place of the relevant antibody. Immunoreactivity was detected using the avidin-biotin horseradish peroxidase complex method (S. M. de la Monte, T. Luong, T. R. Neely, D. Robinson, J. R. Wands. Mitochondrial DNA damage as a mechanism of cell loss in Alzheimer's disease. Lab Invest 80(8) (2000), 1323-35). All sections were examined under code.
Increased levels of 8-OHdG and 4-hydroxynonenol (HNE) have been detected in brains with AD (W. R. Markesbery, J. M. Carney. Oxidative alterations in Alzheimer's disease. Brain Pathol 9(1) (1999), 133-46, L. M. Sayre, D. A. Zelasko, P. L. Harris, G. Perry, R. G. Salomon, M. A. Smith. 4-Hydroxynonenal-derived advanced lipid peroxidation end products are increased in Alzheimer's disease. J Neurochem 68(5) (1997), 2092-7). […] In addition, it was of interest to relate indices of oxidative stress to GFAP immunoreactivity, which reflects astrocytic responses to tissue injury. Paraffin-embedded histological sections of brain were immunostained to detect GFAP, 8-OHdG or HNE using the ABC method with DAB as the chromogen (brown precipitate) and light hematoxylin as the counterstain.

insulin receptor = target: T2, insulin receptor (Rattus norvegicus, UniProt P15127); assay: ic-STZ ± PPAR agonist: equilibrium and saturation binding to insulin receptors in the brain; conditions: for BMAX, insulin receptor saturation binding in brains of treated rats: [125I]-insulin tracer, pooled brain membranes, 4 weeks after ic-STZ ± IP PPAR agonist; for mean insulin receptor binding: temporal lobe and cerebellum
T2 construct: from tissue; host or cells: rat brain (temporal lobe)
T2 sequence (P15127 27-759 limits assumed): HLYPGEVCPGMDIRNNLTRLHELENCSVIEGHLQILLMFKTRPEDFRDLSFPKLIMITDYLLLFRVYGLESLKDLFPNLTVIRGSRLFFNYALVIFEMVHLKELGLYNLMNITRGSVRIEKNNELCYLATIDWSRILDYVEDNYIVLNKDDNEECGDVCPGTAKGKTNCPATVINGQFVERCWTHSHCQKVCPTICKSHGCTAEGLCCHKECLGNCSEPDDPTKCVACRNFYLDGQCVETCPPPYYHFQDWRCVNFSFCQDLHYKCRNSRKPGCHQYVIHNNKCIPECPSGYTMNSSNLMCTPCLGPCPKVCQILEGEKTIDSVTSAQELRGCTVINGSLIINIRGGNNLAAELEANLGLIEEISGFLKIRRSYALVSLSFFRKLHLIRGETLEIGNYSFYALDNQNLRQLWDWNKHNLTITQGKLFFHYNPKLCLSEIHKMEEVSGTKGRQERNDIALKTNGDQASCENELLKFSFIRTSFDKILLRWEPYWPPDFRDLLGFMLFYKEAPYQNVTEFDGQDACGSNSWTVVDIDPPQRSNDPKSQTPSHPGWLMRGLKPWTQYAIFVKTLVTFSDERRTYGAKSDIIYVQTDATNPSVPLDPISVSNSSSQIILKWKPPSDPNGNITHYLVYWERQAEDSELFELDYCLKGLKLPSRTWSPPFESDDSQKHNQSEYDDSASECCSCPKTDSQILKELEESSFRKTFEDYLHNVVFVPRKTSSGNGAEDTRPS
T2 sequence (P15127 764-1383 limits assumed): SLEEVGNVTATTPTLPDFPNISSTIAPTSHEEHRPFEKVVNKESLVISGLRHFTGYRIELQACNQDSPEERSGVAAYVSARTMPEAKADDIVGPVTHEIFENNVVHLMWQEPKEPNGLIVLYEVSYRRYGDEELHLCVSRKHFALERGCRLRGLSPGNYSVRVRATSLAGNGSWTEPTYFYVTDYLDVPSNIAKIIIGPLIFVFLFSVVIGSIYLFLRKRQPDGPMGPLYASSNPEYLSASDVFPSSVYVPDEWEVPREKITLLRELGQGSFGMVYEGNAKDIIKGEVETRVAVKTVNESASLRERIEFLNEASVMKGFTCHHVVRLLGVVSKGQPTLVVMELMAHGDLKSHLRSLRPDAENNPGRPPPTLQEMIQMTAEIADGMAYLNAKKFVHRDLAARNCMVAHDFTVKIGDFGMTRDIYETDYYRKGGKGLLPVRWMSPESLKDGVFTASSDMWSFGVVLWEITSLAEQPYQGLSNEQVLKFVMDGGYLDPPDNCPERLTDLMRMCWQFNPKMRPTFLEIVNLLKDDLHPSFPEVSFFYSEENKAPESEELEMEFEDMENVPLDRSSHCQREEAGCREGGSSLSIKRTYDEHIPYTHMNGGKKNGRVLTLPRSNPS
Experimental: as §1, §2

[2] = temporal lobe, hypothalamus, cerebellum

## CC(C)(Sc1ccc(CCN(CCCCC2CCCCC2)C(=O)NC2CCCCC2)cc1)C(=O)O [PPAR-α agonist, GW7647]
Brain gene expression; cerebellum
  ChAT expression: significantly increased
Brain gene expression; hypothalamus
  Hu gene expression: significantly increased
  MAG-1 gene expression: increased
Brain gene expression
  ic-STZ associated reductions in IGF-II expression: variably prevented
  APP gene expression: significantly reduced
Brain gene expression; temporal lobe
  NOX 1 mRNA: significantly reduced
IGF-II receptor
  BMAX, IGF-II receptor saturation binding in brains of treated rats: 7.291 fmol/mg protein
[1]
  ChAT immunoreactivity: variably increased
  8-OHdG immunoreactivity: conspicuously reduced
  GFAP immunoreactivity: no clear effect
  HNE immunoreactivity: no clear effect
Insulin receptor
  BMAX, insulin receptor saturation binding in brains of treated rats: 1.172 fmol/mg protein
  mean insulin receptor binding: significantly increased

## CC(C)C[C@H](NC(=O)OCC1c2ccccc2-c2ccccc21)C(=O)O [PPAR-γ agonist, F-L-Leu]
Brain gene expression
  APP mRNA relative to control and ic-STZ: significantly higher
  ic-STZ associated reductions in IGF-II expression: variably prevented
  APP gene expression: significantly reduced
  Tau gene expression: restored Tau gene expression to control levels
Brain gene expression; cerebellum
  AChE mRNA compared with ic-STZ treatment alone: significantly reduced
  AIF-1 (microglia) expression relative to ic-STZ group: increased
  ChAT expression: significantly increased
  GFAP (astrocytes) expression relative to ic-STZ group: decreased
  Hu (neurons) expression relative to ic-STZ group: increased
  IGF-I mRNA relative to control: significantly increased
  IGF-II receptor mRNA: significantly increased
Brain gene expression; hypothalamus
  AChE mRNA: significantly increased
Brain gene expression; temporal lobe
  NOX 1 mRNA: significantly reduced
Brain gene expression; temporal lobe and cerebellum
  IGF-I receptor mRNA: significantly increased
IGF-II receptor
  BMAX, IGF-II receptor saturation binding in brains of treated rats: 9.223 fmol/mg protein
[1]
  ChAT immunoreactivity: variably increased
  8-OHdG immunoreactivity: conspicuously reduced
  HNE immunoreactivity: moderately reduced
Insulin receptor
  BMAX, insulin receptor saturation binding in brains of treated rats: 1.127 fmol/mg protein
  mean insulin receptor binding: significantly increased

## CCCc1c(OCCCOc2ccc(OCC(=O)O)cc2)ccc(C(C)=O)c1O [PPAR-δ agonist, L-165,041]
Brain gene expression
  APP mRNA relative to control and ic-STZ: significantly higher
  Tau gene expression: restored Tau gene expression to control levels
Brain gene expression; cerebellum
  AChE mRNA compared with ic-STZ treatment alone: significantly reduced
  AIF-1 (microglia) expression relative to ic-STZ group: increased
  ChAT expression: significantly increased
  GFAP (astrocytes) expression relative to ic-STZ group: decreased
  Hu (neurons) expression relative to ic-STZ group: increased
  IGF-I mRNA relative to control: significantly increased
  IGF-II receptor mRNA: significantly increased
Brain gene expression; hypothalamus
  AChE mRNA: significantly increased
  Hu gene expression: significantly increased
Brain gene expression; temporal lobe
  NOS 2 mRNA: comparable to control
  NOX 1 mRNA: comparable to control
  p53 mRNA: comparable to control
Brain gene expression; temporal lobe and cerebellum
  IGF-I receptor mRNA: significantly increased
IGF-II receptor
  BMAX, IGF-II receptor saturation binding in brains of treated rats: 20.22 fmol/mg protein
IGF-II receptor; cerebellum
  IGF-II receptor binding: significantly increased
IGF-II receptor; rat, in vivo
  BMAX for IGF-II receptor (in words) vs ic-STZ group: increased
[1]
  ChAT immunoreactivity: variably increased
  8-OHdG immunoreactivity: conspicuously reduced
  GFAP immunoreactivity: conspicuously reduced
  HNE immunoreactivity: conspicuously reduced
Insulin receptor
  BMAX, insulin receptor saturation binding in brains of treated rats: 2.186 fmol/mg protein
  mean insulin receptor binding: significantly increased
Insulin receptor; hypothalamus
  insulin receptor binding: significantly increased

## CN(N=O)C(=O)NC1C(O)OC(CO)C(O)C1O (stereo not shown) [STZ]
Brain gene expression; hypothalamus
  AChE mRNA: significantly increased
  IGF-II receptor expression: did not significantly impair
Brain gene expression; hypothalamus and cerebellum
  IGF-I mRNA: not significantly reduced
  IGF-I receptor expression: significantly reduced
Brain gene expression; temporal lobe
  AChE expression: significantly reduced
  IGF-I receptor expression: did not significantly impair
  NOS 2 mRNA: significantly increased
  NOS 3 mRNA: significantly increased
  NOX 1 mRNA: significantly increased
  p53 mRNA: significantly increased
Brain gene expression; temporal lobe and cerebellum
  ChAT mRNA: significantly reduced
  IGF-II receptor expression: significantly reduced
Brain gene expression; [2]
  insulin receptor gene expression: significantly reduced
IGF-II receptor
  BMAX, IGF-II receptor saturation binding in brains of treated rats: 6.431 fmol/mg protein
IGF-II receptor; temporal lobe and cerebellum
  binding to IGF-II receptors: reduced
[1]
  ChAT immunoreactivity: markedly reduced
Insulin receptor
  BMAX, insulin receptor saturation binding in brains of treated rats: 0.8421 fmol/mg protein
Insulin receptor; [2]
  steady-state insulin receptor binding: significantly reduced
